≈ marks a conversion by molar mass, not a printed value. Like-named read-outs stand apart in the source and are kept apart here.
Columns and labels:
[1] = target: T1, Phosphodiesterase-5 enzyme (PDE 5) (Homo sapiens, UniProt O76074); experiment: Test for phosphodiesterase-5 (PDE 5) activity; assay type: biochemical; details: PDE 5 fraction from human corpus cavernosal tissues
T1 construct: separated by HPLC (Mono Q anion exchange column) with concentration gradient of 0-500 mM NaCl to elute PDE isozymes; from tissue; host or cells: human corpus cavernosal tissue

rats = experiment: Penile erection test using rats; assay type: in vivo, rat; details: oral single dose 10 mg/kg in 0.5% methyl cellulose, observed for 2 hours
[2] = Acute oral toxicity test in rats; details: SD, rat, in vivo
[3] = target: T2, Phosphodiesterase-3 enzyme (PDE 3) (Oryctolagus cuniculus, UniProt G1ST54); experiment: Test for phosphodiesterase-3 (PDE 3) activity; assay type: biochemical; details: PDE 3 fraction from platelets of a rabbit
T2 construct: The supernatant was separated by DEAE-cellulose column chromatography (Whatman DE52 bead); from tissue; host or cells: rabbit platelets
T2 sequence (G1ST54 1-1128): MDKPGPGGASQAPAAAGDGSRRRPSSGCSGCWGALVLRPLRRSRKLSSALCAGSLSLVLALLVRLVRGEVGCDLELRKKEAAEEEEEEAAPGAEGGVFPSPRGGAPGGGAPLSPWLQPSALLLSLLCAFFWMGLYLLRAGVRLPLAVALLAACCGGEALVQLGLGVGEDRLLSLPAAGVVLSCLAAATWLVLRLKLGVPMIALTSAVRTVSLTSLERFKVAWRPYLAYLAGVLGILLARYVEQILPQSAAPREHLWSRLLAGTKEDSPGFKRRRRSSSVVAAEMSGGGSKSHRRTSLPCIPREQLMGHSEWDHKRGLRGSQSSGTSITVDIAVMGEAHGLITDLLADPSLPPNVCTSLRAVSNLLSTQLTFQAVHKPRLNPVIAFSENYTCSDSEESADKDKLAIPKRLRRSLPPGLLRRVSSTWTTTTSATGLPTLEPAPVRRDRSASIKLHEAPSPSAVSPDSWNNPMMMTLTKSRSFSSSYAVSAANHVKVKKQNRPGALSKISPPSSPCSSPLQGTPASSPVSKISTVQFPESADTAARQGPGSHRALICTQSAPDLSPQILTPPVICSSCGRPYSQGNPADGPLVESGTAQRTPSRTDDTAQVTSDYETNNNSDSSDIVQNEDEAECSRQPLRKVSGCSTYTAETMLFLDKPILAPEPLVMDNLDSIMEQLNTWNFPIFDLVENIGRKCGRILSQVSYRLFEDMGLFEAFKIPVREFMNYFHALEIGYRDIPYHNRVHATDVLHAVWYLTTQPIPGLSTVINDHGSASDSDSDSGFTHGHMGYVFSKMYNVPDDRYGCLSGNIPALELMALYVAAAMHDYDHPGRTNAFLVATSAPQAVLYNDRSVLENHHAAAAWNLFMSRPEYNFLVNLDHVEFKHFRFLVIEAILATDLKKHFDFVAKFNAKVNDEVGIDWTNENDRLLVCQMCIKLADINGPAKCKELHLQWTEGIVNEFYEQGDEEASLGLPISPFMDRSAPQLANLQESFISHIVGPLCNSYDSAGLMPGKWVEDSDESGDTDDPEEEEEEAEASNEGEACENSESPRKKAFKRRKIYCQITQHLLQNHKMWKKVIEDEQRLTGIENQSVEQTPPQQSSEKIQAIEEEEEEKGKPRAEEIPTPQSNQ
Description: Phosphodiesterase-3 enzyme (PDE 3) was separated from platelets of a rabbit. About 60 ml of blood was collected from a puncture of the abdominal artery of a rabbit in heparinized syringes. Platelet-rich plasma was harvested by centrifugation for 5 min at 450×g and further centrifuged for 15 min at 1,200×g to precipitate the platelets. The platelets were resuspended in homogenizing buffer (50 mM Tris-HCl, 1 mM MgCl2, pH 7.4), homogenized at 4° C. and ultrasonicated (30 sec/ml). The homogenized solution was centrifuged (105,000×g) for 1 hr at 4° C. to obtain the supernatant in which PDE was dissolved. The supernatant was separated by DEAE-cellulose column chromatography (Whatman DE52 bead) by using eluent (50 mM Tris-HCl, 3.75mM2-mercaptoethanol, pH 6.0) with concentration gradient of 0-1 M sodium acetate to elute PDE isozymes. The PDE activity was measured on the each column fraction by the following process to separate PDE 3 fraction and the inhibition for PDE 3 of the compounds of formula 1 was measured by using the fraction.
To 1.5 ml tube containing 100 ul of reaction mixture (15 mM Tris-HCl, 5 mM MgCl2, 0.5 mg/ml BSA, pH 7.4) were added appropriate amount of PDE 3 fraction and PDE inhibitor and the solution was mixed well. After [^3H]-cAMP or [^3H]-cGMP (500 nM, 2 uCi/ml) was added, the mixture was reacted in incubator of 30° C. for about 1 hour and the reaction was quenched by putting the tube into boiling water for about 45 seconds to 2 min. The tube was chilled in ice bath for about 5 min. To this tube was added snake venom (1 mg/ml, 100 ul) or 5′-nucleotidase (0.1 unit/tube) and the mixture was reacted in incubator of 37° C. for 10 min and chilled in ice bath. 3 times volume of methanol to the resin was added to the anion exchange resin (Bio-Rad resin, AG1-X2, 200-400 mesh) which had been already washed with 0.5 N HCl, H2O, 0.5 N NaOH, H2O, 0.5 N HCl and H2O in order and adjusted to pH 5. Then 1 ml of the pretreated resin was added to the each tube with vortexing. The mixture was left at 4° C. for 15 min with occasional vortexing and centrifuged (10,000 rpm) for about 5 min to sediment the resin. The supernatant (700 ul) was transferred to a liquid scintillation vial, and mixed with 10 ml of scintillation cocktail. After stabilizing the mixture by leaving it overnight, the radioactivity of the tube was measured by β-counter.

[4] = Solubility in buffer solution in pH=2&5; assay type: physicochemical; details: for solubility at 30 min: 20 °C, thermodynamic from solid
Description: According to that defined in the Korea Pharmacopoeia, citrate-HCl buffer (pH 2) and citrate-NaOH buffer (pH 5) solutions were added to the powdered compounds of formula 1, respectively. After subsequent severe shaking for 30 sec every 5 min in […] for 30 min, the level of compounds in the filtrate was measured by high performance liquid chromatography.

[5] = Metabolism in rat liver (9,000xg supernatant fraction with NADPH); assay type: in vitro ADME; details: 10 ug/ml, 37° C., 1 hr, rat liver 9,000xg supernatant with NADPH generating solution
Description: In order to evaluate the extent of metabolism of the compounds of formula 1, the metabolism in rat liver was studied as below similar to the reported method (C. L. Litterist, E. G. Mimnaugh, R. I. Reagan and T. G. Gram., Drug. Metabol. Disposit., 1975, 3, 259-265). In short, the disappearance of compounds after incubation in 9, 000×g supernatant fraction of rat liver homogenate in the presence of NADPH (reduced nicotinamide adenine dinucleotide phosphate) was evaluated.
First, Sprague-Dawley rat (Korea Experiment Animals, SPF) liver was isolated after perfusion through portal vein with 0.1 M phosphate buffer of pH 7.0 using tissue homogenizer at 4° C. After centrifugation at 9,000×g for 20 min, the supernatants were collected.
The compound stock solution was spiked (10 ug/ml) into each of the eppendorf tubes containing 1 ml of the mixed solution composing 1 volume of supernatants and 2 volumes of generating solution. The generating solution contains 1 mM NADP, 10 mM glucose-6-phosphate, 50 mM nicotinamide and 5 MM MgCl2 in 0.1 M phosphate buffer of pH 7.0. After vortex-mixing, each test tube was incubated in a water bath kept at 37° C. After 1 hr, was added acetonitrile to the reaction mixture and centrifuged. 100 ul of aliquot of the supernatant was sampled from each test tube for measuring the remnants by high performance liquid chromatography.

[6] = 1 g/kg, rats, oral single dose, read-out: lethal dose (LD50) of oral administration
[7] = citrate-HCl buffer, pH 2, aqueous buffer, citrate-HCl buffer (pH 2), read-out: solubility pH 2
[8] = citrate-NaOH buffer, pH 5, aqueous buffer, citrate-NaOH buffer (pH 5), read-out: solubility pH 5

Structure (SMILES) | IC50 [1] | PEI (penile erection index) (rats) | genital grooming (number of genital groomings) (rats) | LD50 [2, 6] | IC50 [3] | solubility pH 2 ([4]; citrate-HCl buffer (pH 2)) | solubility at 30 min [4, 7] | solubility pH 5 ([4]; citrate-NaOH buffer (pH 5)) | solubility at 30 min [4, 8] | remnants (%) [5] | LD50 ([2]; po)
CCOc1ccc(S(=O)(=O)NCC2CCCN2C)cc1-c1nc2c(CC(C)C)nn(C)c2c(=O)[nH]1 (stereo not shown) [Example 58, 5-[2-ethoxy-5-(1-methyl-2-pyrrolidinylmethylamidosulfonyl)phenyl]-1-methyl-3-isobutyl-1,6-dihydro-7H-pyrazolo(4,3-d)pyrimidin-7-one] | 16 nM | 275.0 ± 170.8 | 3.0 ± 1.8 | > 1000 mg/kg | > 199000 nM | 3722 ug/ml | 3720 to 5360 µg/mL (≈ 7.4 to 10.7 mM) | 9003 ug/ml | 4920 to 14800 µg/mL (≈ 9.79 to 29.4 mM) | 93.5% | 
CCOc1ccc(S(=O)(=O)NCc2ccncc2)cc1-c1nc2c(CC(C)C)nn(C)c2c(=O)[nH]1 [Example 46, 5-[2-ethoxy-5-(4-pyridylmethylamidosulfonyl)phenyl]-1-methyl-3-isobutyl-1,6-dihydro-7H-pyrazolo (4,3-d)pyrimidin-7-one] | 1.2 nM | 200.0 ± 173.2 | 1.3 ± 0.6 | > 1000 mg/kg | > 201000 nM |  | 183 µg/mL (≈ 0.369 mM) |  | 0.4 µg/mL (≈ 0.000805 mM) | 75.9% | 
CCCOc1ccc(S(=O)(=O)NCC2CCN(C)C2)cc1-c1nc2c(CCC)nn(C)c2c(=O)[nH]1 (stereo not shown) [Example 60, 5-[2-propyloxy-5-(1-methyl-3-pyrrolidinylmethylamidosulfonyl)phenyl]-1-methyl-3-propyl-1,6-dihydro-7H-pyrazolo(4,3-d)pyrimidin-7-one] | 34.7 nM | 300.0 ± 81.7 | 2.8 ± 0.5 | > 1000 mg/kg | > 199000 nM | 4497 ug/ml | 3720 to 5360 µg/mL (≈ 7.4 to 10.7 mM) | 4923 ug/ml | 4920 to 14800 µg/mL (≈ 9.79 to 29.4 mM) | 78.2% | 
CCOc1ccc(S(=O)(=O)NCCC2CCCN2C)cc1-c1nc2c(CC(C)C)nn(C)c2c(=O)[nH]1 (stereo not shown) [Example 70, 5-[2-ethoxy-5-(1-methyl-2-pyrrolidinylethylamidosulfonyl)phenyl]-1-methyl-3-isobutyl-1,6-dihydro-7H-pyrazolo(4,3-d)pyrimidin-7-one] | 20.3 nM | 175.0 ± 50.0 | 1.8 ± 0.5 | > 1000 mg/kg | 61500 nM |  | 795 µg/mL (≈ 1.54 mM) |  | 708 µg/mL (≈ 1.37 mM) | 94.1% | 
CCCOc1ccc(S(=O)(=O)NCC2CCCN2C)cc1-c1nc2c(CCC)nn(C)c2c(=O)[nH]1 (stereo not shown) [Example 56, 5-[2-propyloxy-5-(1-methyl-2-pyrrolidinylmethylamidosulfonyl)phenyl]-1-methyl-3-propyl-1,6-dihydro-7H-pyrazolo(4,3-d)pyrimidin-7-one] | 14.2 nM | 200.0 ± 81.7 | 2.0 ± 0.0 | > 1000 mg/kg | > 199000 nM | 3918 ug/ml | 3720 to 5360 µg/mL (≈ 7.4 to 10.7 mM) | 6361 ug/ml | 4920 to 14800 µg/mL (≈ 9.79 to 29.4 mM) | 83.9% | 
CCCOc1ccc(S(=O)(=O)NCCC2CCCN2C)cc1-c1nc2c(CCC)nn(C)c2c(=O)[nH]1 (stereo not shown) [Example 68, 5-[2-propyloxy-5-(1-methyl-2-pyrrolidinylethylamidosulfonyl)phenyl]-1-methyl-3-propyl-1,6-dihydro-7H-pyrazolo(4,3-d)pyrimidin-7-one] | 8.85 nM | 233.3 ± 152.8 | 3.0 ± 2.0 |  | 70100 nM | 5356 ug/ml | 3720 to 5360 µg/mL (≈ 7.2 to 10.4 mM) |  |  | 93.0% | > 1000 mg/kg
CCOc1ccc(S(=O)(=O)NCC2CCN(C)C2)cc1-c1nc2c(CC(C)C)nn(C)c2c(=O)[nH]1 (stereo not shown) [Example 62, 5-[2-ethoxy-5-(1-methyl-3-pyrrolidinylmethylamidosulfonyl)phenyl]-1-methyl-3-isobutyl-1,6-dihydro-7H-pyrazolo(4,3-d)pyrimidin-7-one] | 41.7 nM | 200.0 ± 100.0 | 3.0 ± 1.0 | > 1000 mg/kg | 164000 nM | 4383 ug/ml | 3720 to 5360 µg/mL (≈ 7.4 to 10.7 mM) | 3596 ug/ml | 4920 to 14800 µg/mL (≈ 9.79 to 29.4 mM) | 94.5% | 

Source: patent US6583147B1, “Pyrazolopyrimidinone derivatives for the treatment of impotence” (Dong A Pharm Co., Ltd., priority 1998, dated 2003)
